Reference: US20240384268A1, “Oligonucleotides” (Hudson Institute of Medical Research, priority 2021, published 2024)
In the oligonucleotide strings, read from the 5' end, every base follows the letter of its sugar. An asterisk marks phosphorothioate; unmarked linkages are phosphodiester. Other units and linkages are bracketed, terminal groups are in braces. A string of capitals states the bases alone. d = 2'-deoxy (DNA); m = 2'-O-methyl

target: T1, human TLR7 (Homo sapiens, UniProt Q9NYK1); assay: HEK-TLR7 NF-κB-luciferase reporter, R848 stimulation; format: cell-based; details: HEK-TLR7; 100 nM ASO; percentage of R848 without ASO (Alharbi et al., 2020)
T1 construct: HA; host or cells: 293XL-hTLR7-HA (HEK293)
T1 sequence (Q9NYK1 27-1049): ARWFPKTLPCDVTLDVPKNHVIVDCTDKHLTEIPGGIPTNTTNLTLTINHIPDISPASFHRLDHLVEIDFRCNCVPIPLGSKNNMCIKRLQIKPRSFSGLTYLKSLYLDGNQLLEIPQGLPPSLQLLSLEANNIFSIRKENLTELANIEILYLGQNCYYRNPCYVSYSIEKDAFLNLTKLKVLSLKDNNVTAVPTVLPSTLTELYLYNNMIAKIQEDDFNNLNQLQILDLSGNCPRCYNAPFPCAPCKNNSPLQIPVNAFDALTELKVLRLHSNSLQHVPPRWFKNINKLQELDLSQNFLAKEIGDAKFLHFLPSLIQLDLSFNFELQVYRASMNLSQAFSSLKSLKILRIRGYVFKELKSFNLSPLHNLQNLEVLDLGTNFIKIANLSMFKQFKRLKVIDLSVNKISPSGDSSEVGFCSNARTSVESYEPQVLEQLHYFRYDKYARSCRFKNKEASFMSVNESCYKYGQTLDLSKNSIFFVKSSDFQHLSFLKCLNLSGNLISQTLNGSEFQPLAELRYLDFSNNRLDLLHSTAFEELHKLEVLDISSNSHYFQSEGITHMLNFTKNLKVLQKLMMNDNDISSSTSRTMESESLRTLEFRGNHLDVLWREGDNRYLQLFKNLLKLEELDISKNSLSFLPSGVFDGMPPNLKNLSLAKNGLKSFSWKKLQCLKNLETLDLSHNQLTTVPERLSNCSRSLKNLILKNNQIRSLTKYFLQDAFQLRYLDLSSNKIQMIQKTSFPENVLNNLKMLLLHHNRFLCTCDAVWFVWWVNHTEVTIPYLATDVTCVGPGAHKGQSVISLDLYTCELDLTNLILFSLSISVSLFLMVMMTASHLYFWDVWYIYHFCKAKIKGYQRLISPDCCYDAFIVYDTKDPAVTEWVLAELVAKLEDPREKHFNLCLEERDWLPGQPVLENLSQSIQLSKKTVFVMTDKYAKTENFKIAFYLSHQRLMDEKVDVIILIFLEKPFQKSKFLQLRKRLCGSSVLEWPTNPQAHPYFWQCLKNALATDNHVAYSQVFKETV

First: mG*mG*mA*mU*mU*A*A*A*A*C*A*G*A*T*T*mA*mA*mU*mA*mC (GGAUUAAAACAGATTAAUAC; sugars from the 5' end m5 d10 m5, all phosphorothioate, methylation of C not given here) [[CDKN2B-AS1]1774]
Second: mG*mG*mG*mU*mC*T*C*C*T*C*C*A*C*A*C*mC*mC*mU*mU*mC (GGGUCTCCTCCACACCCUUC; antisense; sugars from the 5' end m5 d10 m5, all phosphorothioate, methylation of C not given here) [[LINC-PINT]128]
The “TLR7-100 nM: averaged NF-κB-Luciferase relative to R848” value of the first is higher: 27.16% for the first, 21.47% for the second.

Going from “mG*mG*mU*mC*mC*C*A*T*C*C*C*T*T*C*T*mG*mC*mU*mG*mC (GGUCCCATCCCTTCTGCUGC; sugars from the 5' end m5 d10 m5, all phosphorothioate, methylation of C not given here) [[LINC-PINT]103]” to “mG*mG*mU*mC*mU*C*C*T*C*C*A*C*A*C*C*mC*mU*mU*mC*mU (mG*mG*mU*mC*mU*dC*dC*dT*dC*dC*dA*dC*dA*dC*dC*mC*mU*mU*mC*mU; antisense) [[LINC-PINT]127]”, the “TLR7-100 nM: averaged NF-κB-Luciferase relative to R848” value rises from 20.75% to 23.66%.

Compared with “mG*mG*mU*mG*mG*C*C*A*C*A*G*G*C*A*A*mC*mG*mU*mC*mA (GGUGGCCACAGGCAACGUCA; antisense; sugars from the 5' end m5 d10 m5, all phosphorothioate, methylation of C not given here) [[CDKN2B-AS1]2196]”, “mG*mU*mC*mA*mA*A*C*C*T*A*G*A*A*A*G*mA*mA*mG*mC*mA (mG*mU*mC*mA*mA*dA*dC*dC*dT*dA*dG*dA*dA*dA*dG*mA*mA*mG*mC*mA; antisense) [[CDKN2B-AS1]1528]” is lower in “TLR7-100 nM: averaged NF-κB-Luciferase relative to R848” value: 39.07% for the first, 23.64% for the second.

Going from “mG*mU*mC*mC*mC*A*G*G*C*C*T*C*C*A*G*mU*mG*mU*mC*mU (mG*mU*mC*mC*mC*dA*dG*dG*dC*dC*dT*dC*dC*dA*dG*mU*mG*mU*mC*mU; antisense) [[CDKN2B-AS1]2223]” to “mG*mU*mC*mC*mC*A*T*C*C*C*T*T*C*T*G*mC*mU*mG*mC*mC (GUCCCATCCCTTCTGCUGCC; antisense; sugars from the 5' end m5 d10 m5, all phosphorothioate, methylation of C not given here) [[LINC-PINT]102]”, the “TLR7-100 nM: averaged NF-κB-Luciferase relative to R848” value rises from 19.01% to 22.47%.

Compared with “mG*mU*mC*mC*mG*T*A*C*C*T*C*C*A*C*C*mC″mA*mC*mC*mG [[LINC-PINT]727.1]”, “mG*mU*mC*mU*mC*C*T*C*C*A*C*A*C*C*C*mU*mU*mC*mU*mC (mG*mU*mC*mU*mC*dC*dT*dC*dC*dA*dC*dA*dC*dC*dC*mU*mU*mC*mU*mC; antisense) [[LINC-PINT]126]” is higher in “TLR7-100 nM: averaged NF-κB-Luciferase relative to R848” value: 22.79% for the first, 25.01% for the second.

Going from “mG*mU*mU*mC*mA*G*T*C*A*G*A*T*C*G*C*mU*mG*mG*mG*mA (mG*mU*mU*mC*mA*dG*dT*dC*dA*dG*dA*dT*dC*dG*dC*mU*mG*mG*mG*mA) [[LINC-PINT]412 KL]” to “mU*mA*mA*mA*mA*T*A*A*G*G*G*G*A*A*T*mA*mG*mG*mG*mG (mU*mA*mA*mA*mA*dT*dA*dA*dG*dG*dG*dG*dA*dA*dT*mA*mG*mG*mG*mG) [[CDKN2B-AS1]80]”, the “TLR7-100 nM: averaged NF-κB-Luciferase relative to R848” value rises from 17.46% to 40.95%.

First: mU*mC*mC*mC*mA*A*C*T*C*T*T*C*T*A*A*mC*mU*mC*mG*mU (mU*mC*mC*mC*mA*dA*dC*dT*dC*dT*dT*dC*dT*dA*dA*mC*mU*mC*mG*mU; antisense) [[LINC-PINT]1284 KL]
Second: mU*mC*mC*mC*mA*T*C*C*C*T*T*C*T*G*C*mU*mG*mA*mC*mA (UCCCATCCCTTCTGCUGACA; sugars from the 5' end m5 d10 m5, all phosphorothioate, methylation of C not given here) [[LINC-PINT]101]
The “TLR7-100 nM: averaged NF-κB-Luciferase relative to R848” value of the first is lower: 40.79% for the first, 43.08% for the second.

First: mU*mC*mU*mC*mC*A*T*G*T*C*C*C*A*G*G*mC*mC*mU*mC*mC (mU*mC*mU*mC*mC*dA*dT*dG*dT*dC*dC*dC*dA*dG*dG*mC*mC*mU*mC*mC; antisense) [[CDKN2B-AS1]2230]
Second: mU*mC*mU*mC*mU*C*T*G*G*T*C*C*C*A*T*mC*mC*mC*mU*mU (mU*mC*mU*mC*mU*dC*dT*dG*dG*dT*dC*dC*dC*dA*dT*mC*mC*mC*mU*mU; antisense) [[LINC-PINT]110]
The “TLR7-100 nM: averaged NF-κB-Luciferase relative to R848” value of the first is lower: 43.45% for the first, 43.82% for the second.

First: mU*mC*mU*mC*mU*G*G*T*C*C*C*A*T*C*C*mC*mU*mU*mC*mU (UCUCUGGTCCCATCCCUUCU; antisense; sugars from the 5' end m5 d10 m5, all phosphorothioate, methylation of C not given here) [[LINC-PINT]108]
Second: mU*mC*mU*mG*mG*T*C*C*C*A*T*C*C*C*T*mU*mC*mU*mG*mC (UCUGGTCCCATCCCTUCUGC; antisense; sugars from the 5' end m5 d10 m5, all phosphorothioate, methylation of C not given here) [[LINC-PINT]106]
The “TLR7-100 nM: averaged NF-κB-Luciferase relative to R848” value of the first is higher: 78.25% for the first, 29.42% for the second.

Going from “mU*mG*mA*mC*mA*A*A*A*C*A*A*T*A*A*T*mA*mA*mC*mA*mG (mU*mG*mA*mC*mA*dA*dA*dA*dC*dA*dA*dT*dA*dA*dT*mA*mA*mC*mA*mG) [[LINC-PINT]384]” to “mU*mG*mA*mC*mA*T*T*T*C*G*T*G*G*C*T*mC*mC*mU*mA*mC (mU*mG*mA*mC*mA*dT*dT*dT*dC*dG*dT*dG*dG*dC*dT*mC*mC*mU*mA*mC; antisense) [[LINC-PINT]523 KL]”, the “TLR7-100 nM: averaged NF-κB-Luciferase relative to R848” value falls from 36.68% to 33.56%.

Going from “mU*mG*mA*mU*mG*A*T*G*C*T*T*G*C*A*G*mG*mA*mG*mG*mC (mU*mG*mA*mU*mG*dA*dT*dG*dC*dT*dT*dG*dC*dA*dG*mG*mA*mG*mG*mC) [[LINC-PINT|283.1]” to “mU*mG*mG*mC*mG*T*A*G*T*T*T*C*T*C*T*mU*mC*mC*mU*mC (mU*mG*mG*mC*mG*dT*dA*dG*dT*dT*dT*dC*dT*dC*dT*mU*mC*mC*mU*mC; antisense) [[LINC-PINT]937.1]”, the “TLR7-100 nM: averaged NF-κB-Luciferase relative to R848” value rises from 25.50% to 32.81%.

First: mU*mG*mU*mG*mA*A*A*A*G*A*T*T*A*T*C*mU*mU*mC*mU*mU (UGUGAAAAGATTATCUUCUU; sugars from the 5' end m5 d10 m5, all phosphorothioate, methylation of C not given here) [[CDKN2B-AS1]2137]
Second: mU*mG*mU*mU*mU*C*C*C*C*G*G*A*G*A*G*mC*mA*mA*mU*mG (UGUUUCCCCGGAGAGCAAUG; antisense; sugars from the 5' end m5 d10 m5, all phosphorothioate, methylation of C not given here) [[LINC-PINT]501 KL]
The “TLR7-100 nM: averaged NF-κB-Luciferase relative to R848” value of the first is higher: 34.51% for the first, 30.90% for the second.

Compared with “mU*mU*mA*mA*mA*T*A*A*T*C*T*A*G*T*T*mU*mG*mA*mA*mG (UUAAATAATCTAGTTUGAAG; sugars from the 5' end m5 d10 m5, all phosphorothioate, methylation of C not given here) [[CDKN2B-AS1]132]”, “mU*mU*mA*mG*mC*T*C*C*T*T*G*C*C*T*C*mG*mU*mU*mC*mC (mU*mU*mA*mG*mC*dT*dC*dC*dT*dT*dG*dC*dC*dT*dC*mG*mU*mU*mC*mC; antisense) [[LINC-PINT] 1222]” is higher in “TLR7-100 nM: averaged NF-κB-Luciferase relative to R848” value: 25.66% for the first, 31.67% for the second.

Going from “mU*mU*mC*mU*mC*T*C*T*G*G*T*C*C*C*A*mU*mC*mC*mC*mU (mU*mU*mC*mU*mC*dT*dC*dT*dG*dG*dT*dC*dC*dC*dA*mU*mC*mC*mC*mU; antisense) [[LINC-PINT]111]” to “mU*mU*mG*mG*mC*C*T*G*T*G*G*A*T*G*C*mU*mU*mU*mG*mU (mU*mU*mG*mG*mC*dC*dT*dG*dT*dG*dG*dA*dT*dG*dC*mU*mU*mU*mG*mU) [[LINC-PINT]2673.1]”, the “TLR7-100 nM: averaged NF-κB-Luciferase relative to R848” value falls from 26.22% to 21.43%.

Compared with “mU*mU*mG*mU*mG*A*A*A*A*G*A*T*T*A*T*mC*mU*mU*mC*mU (mU*mU*mG*mU*mG*dA*dA*dA*dA*dG*dA*dT*dT*dA*dT*mC*mU*mU*mC*mU) [[CDKN2B-AS1]2138]”, “mU*mU*mU*mG*mA*A*A*T*T*C*A*G*A*A*G*mA*mU*mU*mU*mG (mU*mU*mU*mG*mA*dA*dA*dT*dT*dC*dA*dG*dA*dA*dG*mA*mU*mU*mU*mG) [[LINC PINT|2690]” is higher in “TLR7-100 nM: averaged NF-κB-Luciferase relative to R848” value: 35.02% for the first, 35.07% for the second.
